Each block holds one compound with its values, some of them ahead of it.
Key:
[1] = from the reported stability constants
[2] = Fenton assay (competition with iron, H2DCF oxidation); conditions: FIG. 4
Experimental: By permitting the chelator DPDP, the metal complexes MnDPDP and MnPLED to compete with iron in the Fenton assay, the stability of MnDPDP and MnPLED was compared.
H2O2 (100 μM) was added to initiate the production of hydroxyl radicals (HO.). The latter oxidize H2DCF (non-fluorescent 2′,7′-dichlorodihydrofluorescein; 5 μM) to fluorescent DCF (2′,7′-dichlorofluorescein). H2DCF was obtained by hydrolysing its acetate ester (H2DCF-DA)]. […] DPDP, MnDPDP and MnPLED at various concentrations were assayed for their iron-chelating capacity. Fluorescence was measured in an FL600 Microplate Fluorescence reader (Bio-Tek, Winooski, Vt., U.S.A.) at ex 485 nm and em 530 nm.

[3] = system: normal retinal epithelia telomerase immortalized cells (hTERT-RPE1); assay: Fluorometric microculture cytotoxicity assay (FMCA), hTERT-RPE1; assay type: cell-based; conditions: for cytostatic effect (alone): FMCA, 72 h
[4] = system: human ileocecal colorectal adenocarcinoma cells (HCT-8); assay: Fluorometric microculture cytotoxicity assay (FMCA), HCT-8; assay type: cell-based; conditions: HCT-8 cells; for cytostatic effect (alone): FMCA, 72 h
Experimental: (§1) HCT-8 cells were grown in RPMI 1640 medium with sodium pyruvate (1 mM) and 10% horse serum. SW620 were grown in ATCC-formulated Leibovitz's L-15 Medium with 10% fetal bovine serum. Cells were kept at 37° C. in a humidified atmosphere containing 5% carbon dioxide. The cells were harvested in the log-phase for experimental use. The fluorometric microculture cytotoxicity assay (FMCA) was used to investigate the cytostatic activity of oxaliplatin, MnDPDP or DPDP and combinations thereof. FMCA is based on measurement of fluorescence generated from hydrolysis of fluorescein diacetate (FDA) to fluorescein by cells with intact plasma membranes. Briefly, 96-well microtiter plates were freshly prepared with drug solutions in triplicates at 10 times the desired drug concentrations. Cell suspensions were seeded into the drug-prepared plates with 20 000 cells per well and plates were then incubated for 72 h. After incubation, the plates were washed, FDA was added, and after 50 min of incubation the fluorescence generated (excitation 480 nm) was measured at 538 nm in a fluorometer (Fluorostar Optima, BMG Technologies). The fluorescence is proportional to the number of cells with intact plasma membrane present in the well.

[5] = system: human colon cancer SW480 cells; conditions: 24 h, MTT
Experimental: (§2) The viability of cells was measured using the MTT assay. Briefly, 20,000 SW480 or J774 cells were seeded per well on a 96-well plate and grown over night in Dulbecco's Modified Eagle's Medium (DMEM) containing 10% fetal bovine serum, 2 mM L-glutamine, 100 Ul/ml penicillin and 100 μg/ml streptomycin at 37° C. in humidified air with 5% CO2. Cells were then exposed for 24 h to 50 μM MnDPDP, 50 μM DPDP or 10 μM oxaliplatin at 37° C. The effect of combining 50 μM DPDP with 10 μM oxaliplatin on viability was also tested. The viability of the cells was then assessed by adding 5 mg/ml methylthiazoletetrazolium (MTT) to a final concentration of 0.5 mg/ml and incubating cells for a further 4 h at 37° C. The blue formazan that is formed by mitochondrial dehydrogenases of viable cells was then dissolved over night at 37° C. by adding 10% SDS and 10 mM HCl to a final concentration of 5% SDS and 5 mM HCl. Finally, the absorbance of the solution was read at 570 nm with a reference at 670 nm in a microplate reader Spectramax 340 (Molecular Devices, Sunnyvale, Calif., USA) connected to an Apple Macintosh computer running the program Softmax Pro V1.2.0 (Molecular Devices, Sunnyvale, Calif., USA).

[6] = system: murine lymphoma J774 cells; conditions: 24 h, MTT
Experimental: as §2

[7] = system: human adenocarcinoma cells (SW620); assay: Fluorometric microculture cytotoxicity assay (FMCA), SW620; assay type: cell-based; conditions: for cytostatic effect (alone): FMCA, 72 h
Experimental: as §1

[8] = system: infarct size; conditions: pigs; MnPLED 3 μmol/kg; cited from earlier work
[9] = pigs, ten minutes after injection; cited from earlier work
[10] = cited from earlier work
[11] = Rocklage et al., 1989; cited from earlier work
[12] = Rocklage et al., 1989; cited from earlier work; remark: listed apart in the source
[13] = Rocklage et al., 1989; cited from earlier work; remark: listed apart in the source

how much more readily Mn^2+ dissociates than Zn^2+ [1]: about 1000 times
Compound: Cc1ncc(COP(=O)(O)O)c(CN(CCN(CC(=O)O)Cc2c(COP(=O)(O)O)cnc(C)c2O)CC(=O)O)c1O [DPDP, N,N′-bis-(pyridoxal-5-phosphate)-ethylenediamine-N,N′-diacetic acid]
inhibition of the Fenton reaction ([2]; 10 μM ferric iron, 100 μM cysteine, 100 μM H2O2): inhibited the Fenton reaction in a dose-dependent manner
concentration at which inhibition of the Fenton reaction started ([2]; 10 μM ferric iron): 0.1 µM
concentration at which inhibition of the Fenton reaction was complete ([2]; 10 μM ferric iron): 10 µM
potentiation of the cytostatic effects of oxaliplatin ([3]; 100 μM with 8 μM oxaliplatin, FMCA 72 h, FIG. 3D): but not in normal cells
cytostatic effect (alone) [3]: Neither MnDPDP nor DPDP demonstrated any cytostatic effect
potentiation of the cytostatic effects of oxaliplatin ([4]; 100 μM with 8 μM oxaliplatin, FMCA 72 h, FIG. 3C): significantly (unpaired t-test) potentiated
cytostatic effect (alone) [4]: Neither MnDPDP nor DPDP demonstrated any cytostatic effect
cytostatic activity in combination with oxaliplatin versus oxaliplatin alone ([5]; 50 μM DPDP + 10 μM oxaliplatin): tendency, although not statistically significant (p<0.07), that DPDP in combination with oxaliplatin was more potent than oxaliplatin alone
cytostatic activity ([5]; 50 μM, unpaired t-test, FIG. 1): statistically significant more efficacious than that of 50 μM MnDPDP
cytostatic activity in combination with oxaliplatin versus oxaliplatin alone ([6]; 50 μM DPDP + 10 μM oxaliplatin): significantly more efficacious than oxaliplatin alone
cytostatic activity ([6]; 50 μM, FIG. 2): significantly more efficacious to kill the lymphoma cells than MnDPDP
potentiation of the cytostatic effects of oxaliplatin ([7]; 100 μM with 8 μM oxaliplatin, FMCA 72 h, FIG. 3B): significantly (unpaired t-test) potentiated
cytostatic effect (alone) [7]: Neither MnDPDP nor DPDP demonstrated any cytostatic effect

Compound: MnDPDP
infarct size [8]: did not reduce the infarct size
replacement of manganese with zinc [9]: all manganese has been replaced with zinc
iron-chelating capacity ([2]; Fenton assay): significantly higher than that of MnPLED
cytostatic effect (alone) [3]: Neither MnDPDP nor DPDP demonstrated any cytostatic effect
cytostatic effect (alone) [4]: Neither MnDPDP nor DPDP demonstrated any cytostatic effect
cytostatic effect (alone) [7]: Neither MnDPDP nor DPDP demonstrated any cytostatic effect
administered manganese released ([10]; humans, intravenous injection): about 70%
injected manganese that stays bound to the chelator ([10]; man, for a considerable amount of time): about 30%
injected MnDPDP transformed into MnPLED ([10]; man, shortly after intravenous injection): about 30%

Compound: O=C1[O][Pt]2([NH][C@@H]3CCCC[C@H]3[NH]2)[O]C1=O [Oxaliplatin, oxaliplatin]
cytostatic effect (alone) [3]: only a slight effect at its highest concentration
cytostatic effect (alone) [4]: concentrations-dependent cytostatic effect
cytostatic effect (alone) [7]: concentrations-dependent cytostatic effect

how much more readily Mn^2+ dissociates than Zn^2+ [1]: about 1000 times
Compound: Cc1ncc(CO)c(CN(CCN(CC(=O)O)Cc2c(CO)cnc(C)c2O)CC(=O)O)c1O [PLED, N,N′-dipyridoxyl ethylenediamine-N,N′-diacetic acid]
stability constant with Zn^2+ [11]: 16.68 logK
stability constant with Mn^2+ [12]: 12.56 logK
stability constant with Fe^3+ (ferric iron) [13]: 36.88 logK
